System: hNCC(V231M)
Assay: 125I- uptake assay, hNCC(V231M) variant
Type: cell-based, human
Details: V231M polymorphism
Method: HEK293S cell lines, cultured in 293 Freestyle medium (Life Technologies; plus 10% fetal bovine serum), stably expressing hNCC and its variants were generated following published protocols. Cells were transfected using Lipofectamine 3000 (Invitrogen) with a pSBbi-RP-based plasmid containing hNCC or its variants and the SB100X vector. Puromycin (2 μg/mL; Gemini Bio-Products) was used for selection of stable cell lines.
To prepare for the uptake experiment, cells were plated at 0.5 × 10^6 cells/well in 24-well plates one day in advance. To activate NCC, cells were treated with a chloride-free hypotonic solution composed of 67.5 mM sodium-, 2.5 mM potassium-, 0.25 mM magnesium-, and 0.25 mM calcium-gluconate, as well as 7.5 mM HEPES pH 7.4 (buffered using Tris) at 37 °C for 10 min[72]. After the activation step, the experiments were carried out at room temperature. Ten minutes before the start of ^125I^− uptake, 70 μM Bumetanide (Thermo Scientific Chemicals) and 100 μM 4,4′-diisothiocyanatostilbene-2,2′-disulfonic acid (DIDS; Sigma) were added to suppress background iodide uptake activity. Indicated thiazide diuretics were also added to the indicated concentrations 10 min before the start of ^125I^− uptake. The original buffer was switched to an uptake buffer composed of 135 mM Na-gluconate, 5 mM K-gluconate, 1 mM Mg-gluconate, 1 mM Ca-gluconate, 70 μM bumetanide, 100 μM DIDS, 1 mM NaI, 0.25 μCi/ml Na^125I (American Radiolabeled Chemicals, Inc.), and 15 mM HEPES pH 7.4 (buffered using Tris), in the presence or absence of thiazide diuretics to initiate ^125I^− uptake. The ^125I^− uptake process lasted 1 h and was stopped by two rapid washes using ice-cold 110 mM MgCl2. Cells lysed using 1% sodium dodecyl sulfate (SDS) were analyzed by scintillation counting.
To calculate the fold change of the half-maximal inhibitory concentration (IC50) between hNCC(WT) and different hNCC variants, individual dose-response curves were normalized first using the smallest mean and the value of the lowest concentration as 0% and 100%, respectively. The normalized data were then fitted using the “EC50 shift” nonlinear regression in GraphPad Prism 10 with the shared EC50Control assigned to be the IC50 of hNCC(WT). The following constraints were used in the EC50 shift analysis. The EC50Control was set to be shared across all curves under analysis and constrained to be greater than 0. The EC50Ratio was constrained to be greater than 0. The bottom, top, and HillSlope were constrained to be 0, 100, and −1, respectively. For Fig. 1f, g and Supplementary Fig. 2d, GraphPad Prism 10 was used to perform curve fitting and IC50 calculation for normalized data using y = 100/(1 + (x/IC50)).

For `NS(=O)(=O)c1cc2c(cc1Cl)NCNS2(=O)=O` [hydrochlorothiazide], the “sensitivity relative to hNCC(WT) (fold lower)” value was “nearly as sensitive as the wild-type”.

Reference: paper PMC12365235, “Molecular mechanisms of thiazide-like diuretics-mediated inhibition of the human Na-Cl cotransporter” (Nature Communications, 2025)
